Values of other authors as cited in patent US20240299501A1, “COMPOSITION AND METHODS OF TREATMENT USING TRANSDERMAL HORMONE SUPPLEMENTATION” (Xygenyx Inc., priority 2023, published 2024).

Columns and labels:
[1] = single penetration enhancer
[2] = test system: wide dynamic range neurons in the ventroposterolateral nucleus of the thalamus; settings: stated as 'is believed'
[3] = in the human body

Row | Molecule | increase of drug uptake via the transdermal route (factor) [1] | further results
1 | CC(C)[C@@H]1CC[C@@H](C)C[C@H]1O [Menthol] | ≥ 10 | –
2 | CCCCCc1cc(O)c2c(c1)OC(C)(C)C1CCC(C)=CC21 (stereo not shown) [THC, Δ-9-tetrahydrocannabinol] | – | potency relative to morphine in mediating pain [2]: ten times more powerful than morphine
3 | CC12CCC(CC1)C(C)(C)O2 [eucalyptol, 1,8-epoxy-p-menthane] | more than 10 | –
4 | HGH: hormone comprising a peptide chain that is synthesized in the pituitary gland | – | biological half-life [3]: 10-20 minutes
